In US20120003270A1, “6-SUBSTITUTED ISOFLAVONOID COMPOUNDS AND USES THEREOF” (priority 2008, published 2012):

Tests used:
VCAM-1 = assay: TNFα-induced VCAM-1 expression in HAECs (ELISA); type: cell-based, human; details: TNFα-stimulated HAECs, 405 nm
Protocol: Inhibition of TNFα-stimulated endothelial cell activation was assessed by measuring surface expression of cell adhesion molecules with an ELISA method. Human arterial endothelial cells (HAEC) in growth medium (Cell Applications Inc.) were seeded into 96-well plates at a density of 10,000 cells per well. Plates were incubated overnight at 37° C. in a humidified incubator to allow for cells to become confluent. On the morning of the experiment, TNFα (10 μl, 2 ng/ml) was added to each well, which contained 100 μl of medium. Test compounds were diluted in DMSO-containing medium (2.5% DMSO) to give a concentration of 100 and 300 μM. They were added to wells so that final concentrations were 10 and 30 μM. DMSO-containing medium alone was added to zero concentration control wells. All samples were measured in quadruplicate (4 wells per treatment).
After incubation with a compound of the formula (I), the medium was removed and cells were probed with either non-specific IgG or specific mouse antibodies (VCAM (BD Biosciences −0.1 μg in 100 μL buffered saline with 10% heat-inactivated human serum)).
Adhesion molecule expression was detected by addition of sheep anti-mouse antibody/horseradish peroxidase conjugate. Plates were allowed to stand for 30 minutes—monolayers were then washed, and sheep anti-mouse antibody/horseradish peroxidase conjugate (1:500 in 100 μL HBSS with 10% heat-inactivated human serum and 0.05% Tween 20) was added and left for 30 minutes. After further washing, 150 μL, ABTS substrate (Kirkegaard and Perry Laboratories) was added to each well and allowed to develop for 15 minutes. Optical density was measured at 405 nm with an ELISA reader (Titertek Multiscan, Flow Laboratories).

TNFα = TNFα synthesis in RAW 264.7 (ELISA); type: cell-based, mouse; details: LPS 50 ng/ml, 16 hrs
Protocol: (§1) The mouse macrophage cell line RAW 264.7 was cultured in DMEM supplemented with foetal calf serum (FCS), 2 mM glutamine and 50 U/ml penicillin/streptomycin. Cells were treated with either test compounds (in 0.025% DMSO) or vehicle alone, and added one hour before 50 ng/ml LPS. After incubation for 16 hrs, culture media was collected for PGE2 or TXB2 measurement by ELISA (Cayman Chemical), and TNFα measurement using an ELISA (Becton Dickinson).

PGE2 [1] = assay: PGE2 synthesis in RA-stimulated U937 cells; type: cell-based, human; details: A23187 0.5 μM, 30 min
Protocol: U937 cells were thawed and resuspended in RPMI and 10% FCS at 2×10^5 cells per ml. The cells were incubated in 5% CO2 at 37° C. and expanded in growing culture to at least 6.4×10^7 total cells. The cells were then resuspended in fresh medium and cultured with 5 μM retinoic acid (RA) at 2×10^5 cells per ml for a further 3 days (72 h). RA treated cells were washed 2× in serum-free RPMI and resuspended in serum-free medium at 5×10^6 cells per ml. The cells were aliquotted into Teflon tubes at 1 ml per tube. Working stock solutions of compounds (1) and (3) were prepared at 0.1 mM, 1 mM and 10 mM as described above. For each working dilution, 10 μl was added to 1 ml cells to achieve a final concentration of 0 (DMSO alone), 1, 10, and 100 μM for each test compound. Cells were incubated in triplicate with each concentration of test compound for 15 min at 37° C. After 15 min pre-incubation, each 1 ml tube of cells received 5 μl of a […] solution of the calcium ionophore A23187 (to achieve 0.5 μM A23187). Incubation at 37° C. was continued for a further 30 min. After incubation, supernatants were collected by centrifugation at 2000 rpm for 10 min and stored at −20° C. until required for assay.

PMA-induced ear swelling = assay: Murine ear inflammation assay, PMA; type: in vivo, mouse; details: 25 mg/kg i/p; for Change in ear thickness (mean ± SD, ×0.01 mm): 5 hr after PMA
Protocol: Groups of 5-6 female BALB/c mice (ARC, WA, Australia), weighing 15-21 g were injected intraperitoneally (i/p) with selected compounds of the formula (I) at 25 mg/kg delivered in polyethylene glycol (PEG) 400: phosphate buffered saline (PBS) 1:1 or ethanol: propanediol:PBS 4:9:7 either 30 min prior to or immediately before the inflammogen was applied to the ears. Mice were anaesthetised using isoflurane and baseline thickness of both ears was measured using a spring micrometer. Each mouse received a total of […] of either AA in ethanol (50 mg/ml or 200 mg/ml) or PMA in either ethanol or acetone (0.2 mg/ml) applied to the inner and outer surfaces of each pinna (i.e. 0.5 mg or 2 mg AA or 2 μg PMA per ear). Mice were anaesthetised again to re-measure the ears at 1 hr post-AA application and 5 hr after PMA. The difference in ear swelling pre- and post-application of inflammogen for each ear was calculated, and the average for the two ears of each mouse taken. The difference in mean swelling of each test group compared to the group given vehicle alone was calculated using a general ANOVA using Dunnett's Multiple Comparison test when multiple compounds were tested in the one experiment or a two-tailed unpaired t-test when only one compound was tested (Prism 4, Graphpad Software).

PGE2 [2] = assay: PGE2 synthesis in RAW 264.7 (ELISA); type: cell-based, mouse; details: LPS 50 ng/ml, 16 hrs
Protocol: as §1

[3] = Free radical scavenging (DPPH); type: biochemical; details: DPPH 0.1 mM, 20 minutes, 517 nm; read-out: Free radical scavenging ability EC50
Protocol: The antioxidant (free radical trapping) activity of test compounds was assessed using the stable free radical compound 2,2-diphenyl-1-picrylhydrazyl (DPPH). A stock solution of DPPH was prepared at a concentration of 0.1 mM in ethanol and mixed for 10 minutes prior to use. Compound (1) was reacted with DPPH for 20 minutes, after which time the absorbance at 517 nm was determined. The change in absorbance at 517 nm was compared to a reagent blank (DPPH with ethanol alone). The IC50 value was estimated as the concentration of the test compound that caused a 0.6 change in absorbance (with 1.2 absorbance units representing total scavenging of the DPPH radical).

SMILES | VCAM-1 expression, Absorbance (VCAM-1; 10 μM) | VCAM-1 expression, Absorbance (VCAM-1; 30 μM) | TNFα (TNFα; 1 μM) [pg/mL] | TNFα (TNFα; 10 μM) [pg/mL] | PGE2 (PGE2 [1]; 1 μM) [pg] | PGE2 (PGE2 [1]; 10 μM) [pg] | PGE2 (PGE2 [1]; 100 μM) [pg] | % Change compared with vehicle (PMA-induced ear swelling) [%] | Change in ear thickness (mean ± SD, ×0.01 mm) (PMA-induced ear swelling) [×0.01 mm] | PGE2 (PGE2 [2]; 1 μM) [pg/mL] | PGE2 (PGE2 [2]; 10 μM) [pg/mL] | EC50 [3] [µM]
CN(C)Cc1cc2c(cc1O)OCC(c1ccc(O)cc1)=C2 [Compound (1)] | 0.164 ± 0.012 | 0.208 ± 0.008 | 40002.31 ± 694.8 | 41958.94 ± 837.04 | 1.485 ± 0.175 | 1.58 ± 0.145 | 0.881 ± 0.116 | −12.3 | 28.9 ± 3.071 | 2601.37 ± 153.53 | 847.96 ± 144.83 | 18.8
O=C(O)C1CCCN1Cc1cc2c(cc1O)OCC(c1ccc(O)cc1)=C2 (stereo not drawn) [Compound (3)] | 0.161 ± 0.16 | 0.215 ± 0.018 | 26677.52 ± 815.64 | 45429.44 ± 1630.68 | 1.025 ± 0.114 | 1.271 ± 0.212 | 1.39 ± 0.227 | 0 | 37.9 ± 2.6 | 2890.02 ± 320.91 | 2031.43 ± 261.59 | 13.6
